What all share (assay): NCI anticancer screen, dose series, 48 h
Test [1] has as its system SN12C renal.
Test [2] relates to ACHN renal.
Test [3] deals with EKVX NSCLC.
For test [4], the system named is MDA-MB-231 breast.
In test [5] the test system is NCI-H460 lung.
The subject of test [6] is SR leukemia.
Test [7] deals with RXF 393 renal.
Test [8] relates to SF-295 CNS.
Test [9] deals with HS 578T breast.
The subject of test [10] is HL-60(TB) leukemia.

Where “and” joins values, the source holds several entries; their conditions need not be identical. Equal values may be shown once.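 48-hour exposure; five concentrations; linearly interpolated endpoints. GI50 is the concentration that inhibits growth by half. At the TGI there is no net growth.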

As to `CC(C)=CC1C(C(=O)OCc2cc3c(cc2Cl)OCO3)C1(C)C` (configuration not stated), the TGI was more than 100 µM in test [1]; more than 100 µM in test [2]; 80 µM in [3]; 86.6 µM in test [4]; more than 100 µM in [5]; 33.4 µM in test [6]. For the same compound, the TGI in test [7], in test [8] and in test [9] was more than 100 µM in each case.

Consider `Cn1c2c(c3c(=O)[nH]ncc31)Cc1ccccc1-2`, for which the TGI in test [1] is 47.9 µM; in test [2], 34.7 µM; in test [10], 69 µM; in test [3] it was more than 100 µM; in [4] it was 98.2 µM; in test [5], 15.1 µM. Moreover, the TGI is 28.4 µM in test [6], 32.4 µM in test [7], 25.7 µM in test [8] and more than 100 µM in [9].

Turning to `CC(=O)OC12c3ccccc3C(c3ccccc31)C1C(=O)N(N=C(C)C)C(=O)C12` (configuration not stated), the TGI in [1], in [10], in test [3], in test [4], in test [6] and in test [7] was more than 100 µM throughout. Besides, the TGI in test [8] and in test [9] was more than 100 µM throughout.

As for `Cc1n[nH]c(=O)n1-n1cccc1`, the TGI in [1], in test [2], in test [3], in test [4], in test [5] and in test [6] was more than 100 µM each time. Further, the TGI in test [7], in [8] and in test [9] was more than 100 µM throughout.

As for `BrC1(c2ccccc2)C[n+]2c(-c3ccccc3)cc(-c3ccccc3)cc2-c2ccccc21` (configuration not stated), the TGI stood at 16.7 µM in [1]; 14 µM in test [2]; 0.538 µM in test [10]; 18.8 µM in test [3]; 1.63 µM in [4]; 6.99 µM in [5]. In addition, the TGI in [6] was more than 42.5 µM; in test [7], 0.635 µM; in [8], 5.68 µM; in test [9] it was 0.872 µM.

Consider `CC(C)Oc1cccc(N2C(CCc3c[nH]c4ccc(Br)cc34)=NS(=O)(=O)c3cnccc32)c1`, for which the TGI in test [1], in test [2], in test [10], in [3], in test [4] and in test [5] was more than 100 µM in each case. The TGI in test [6], in test [7], in test [8] and in test [9] was more than 100 µM throughout.

As to `O=C(/C=C\c1ccccc1)Oc1ccc(/C=C2\CCC/C(=C\c3ccc(OC(=O)/C=C\c4ccccc4)cc3)C2=O)cc1`, the TGI in [1], in test [2], in [10], in test [3], in [4] and in [5] was more than 100 µM throughout. The TGI in test [6], in test [8] and in [9] was more than 100 µM throughout.

Turning to `O=c1[nH]c2c(Nc3c4ccccc4nc4ccccc34)c([N+](=O)[O-])c(Nc3c4ccccc4nc4ccccc34)c([N+](=O)[O-])c2[nH]1`, the TGI in [1] is 8.8 µM; in test [2], 4.78 µM; in test [10] it was more than 23.7 µM; in test [3], 5.2 µM; in [4] it was 4.92 µM; in [5], more than 22.5 µM. Further, the TGI in [6] came out at 4.07 µM; in [7] it was 7.19 µM; in test [8], 12.8 µM; in [9], 7.12 µM.

`C/C(=N\NC(=S)NC(C)(C)C)c1nc2ncccc2[nH]1`: the TGI in test [1] was more than 100 µM; in [2] it was more than 100 µM; in [10], more than 21.6 µM; in test [3], more than 65 µM; in [4], more than 100 µM; in test [5] it was 55 µM. For the same compound, the TGI is more than 72.2 µM in test [6], more than 100 µM in test [7], more than 100 µM in test [8] and more than 30.2 µM in [9].

As for `COC(=O)C(Cc1ccccc1)NC(=O)C(CNC(=O)OCc1ccccc1)C(=O)OCc1ccccc1` (configuration not stated), the TGI was more than 100 µM in [1]; more than 100 µM in test [10]; > 100 µM and 64.6 µM in test [4]; > 100 µM and 36.5 µM in test [5]; more than 100 µM in test [6]; 34.1 µM in test [7]. In addition, the TGI is > 100 µM and 80.2 µM in test [8]; more than 100 µM in test [9]. The GI50 in test [10] was > 100 µM and 21.6 µM; in test [5], 94.1 µM and 13.5 µM; in test [8], > 100 µM and 28.6 µM; in [9], 59 µM.

With `Clc1[nH]nc2ccccc12`, the TGI in test [1], in test [2], in test [10], in test [3], in test [4] and in test [5] was more than 100 µM throughout. The TGI in test [7], in test [8] and in test [9] was more than 100 µM in each case.

Consider `CC(C)CNP(=O)(NCC(C)C)Oc1ccc(CC(NC(=O)OCc2ccccc2)C(=O)OCc2ccccc2)cc1` (configuration not stated), for which the TGI worked out at 39.9 µM in test [1]; 30.6 µM in test [2]; 77.2 µM in test [3]; 34.9 µM in test [4]; 33.4 µM in test [5]; 29.2 µM in [6]. Moreover, the TGI in test [7] was determined as 36.2 µM; in [8] it was 98.4 µM; in test [9], 85.8 µM.

With `COC(=O)c1c(O)ccc2c1c1c(n2Cc2ccc(OC)cc2)C(=O)c2ccccc2C1`, the TGI in test [1] is 93.3 µM; in test [10], more than 100 µM; in test [4], more than 100 µM; in test [5], more than 100 µM; in [6], more than 100 µM; in test [7], 79.9 µM. Further, the TGI in test [8] and in [9] was more than 100 µM in each case.

`COc1cc(C2c3cc4c(cc3[C@@H](Nc3ccc(F)cc3)C3COC[C@H]23)OCO4)cc(OC)c1O` (some centres not stated): the TGI in test [1] is 23.1 µM; in test [2] it was 6.21 µM; in test [10] it was 2.29 µM; in [3], more than 25 µM; in test [4], 15.1 µM; in test [5] it was 3.83 µM. Further, the TGI in test [6] turned out to be 5.5 µM; in [8], 5.32 µM; in test [9] it was 4.21 µM.

The values above are taken from PubChem BioAssay (NCI).
